ChEMBL document CHEMBL4823265, “Benzophenones from Betula alnoides with Antiausterity Activities against the PANC-1 Human Pancreatic Cancer Cell Line” (J Nat Prod, 2021)
The source made the active and inactive calls. The rule behind the calls is not given here.

Columns and labels:
PANC-1 [1] = test: Anti-austerity activity against human PANC-1 cells assessed as cell killing incubated for 24 hrs in nutrient deprived medium by CCK8 assay; type: functional
PANC-1 [2] = test: Cytotoxicity against human PANC-1 cells assessed as reduction in cell viability incubated for 24 hrs in nutrient-rich DMEM medium by CCK8 assay; type: cell-based; details: panc-1, 24 h
PANC-1 [3] = test: Cytotoxicity against human PANC-1 cells assessed as swollen cell morphology by measuring red fluorescence emission incubated for 24 hrs in nutrient deprived medium by ethidium bromide/acridine orange double staining based fluorescence microscopic analysis; type: functional; details: dose 5-10 µM
PANC-1 [4] = test: Cytotoxicity against human PANC-1 cells assessed as membrane blebs by measuring red fluorescence emission incubated for 24 hrs in nutrient deprived medium by ethidium bromide/acridine orange double staining based fluorescence microscopic analysis; type: functional, cell-based; details: dose 5-10 µM
PANC-1 [5] = test: Cytotoxicity against human PANC-1 cells assessed as ruptured cell membrane by measuring red fluorescence emission incubated for 24 hrs in nutrient deprived medium by ethidium bromide/acridine orange double staining based fluorescence microscopic analysis; type: functional; details: dose 5-10 µM
PANC-1 [6] = test: Inhibition of colony formation in human PANC-1 cells treated for 24 hrs followed by replacement with fresh DMEM medium and measured after 10 days by crystal violet staining based assay; type: functional, cell-based; details: dose 10-40 µM
PANC-1 [7] = test: Inhibition of colony formation in human PANC-1 cells at 10 to 40 uM treated for 24 hrs followed by replacement with fresh DMEM medium and measured after 10 days by crystal violet staining based assay relative to control; type: functional; details: dose 10-40 µM
PANC-1 [8] = test: Cytotoxicity against human PANC-1 cells assessed as inhibition of cell mobility at 5 to 10 uM incubated in nutrient deprived medium measured every 15 mins for 4 hrs by time-lapse live imaging based analysis; type: functional; details: dose 5-10 µM
PANC-1 [9] = test: Cytotoxicity against human PANC-1 cells assessed as cell shrinkage at 5 to 10 uM incubated in nutrient deprived medium measured every 15 mins for 8 hrs by time-lapse live imaging based analysis; type: functional; details: dose 5-10 µM
PANC-1 [10] = test: Cytotoxicity against human PANC-1 cells assessed as membrane blebbing at 10 uM incubated in nutrient deprived medium measured every 15 mins for 13 hrs by time-lapse live imaging based analysis; type: functional, cell-based
PANC-1 [11] = test: Cytotoxicity against human PANC-1 cells assessed as cell death at 10 uM incubated in nutrient deprived medium measured every 15 mins for 23 hrs by time-lapse live imaging based analysis; type: functional
PANC-1 [12] = test: Inhibition of colony formation in human PANC-1 cells at 20 uM treated for 24 hrs followed by replacement with fresh DMEM medium and measured after 10 days by crystal violet staining based assay relative to control; type: functional
PANC-1 [13] = test: Inhibition of colony formation in human PANC-1 cells at 40 uM treated for 24 hrs followed by replacement with fresh DMEM medium and measured after 10 days by crystal violet staining based assay relative to control; type: functional

| Structure (SMILES) | PC50 (PANC-1 [1]) | Activity (PANC-1 [2]) | also measured |
| --- | --- | --- | --- |
| COc1cc(C[C@H]2C(=O)OC[C@@H]2Cc2ccc(OC)c(OC)c2)ccc1O [ARCTIGENIN] | 0.7 µM |  |  |
| COc1cc2c(=O)c3ccccc3oc2cc1O | >100 µM | Non-Toxic |  |
| CC(C)=CCC/C(C)=C/CC/C(C)=C/Cc1c(O)cc(O)c(C(=O)c2ccccc2)c1O | 8.3 µM | Non-Toxic |  |
| CC(C)=CCC/C(C)=C/CC[C@@](C)(O)CCc1c(O)cc(O)c(C(=O)c2ccccc2)c1O | 5.9 µM | Non-Toxic | Activity (PANC-1 [3]): Dose-Dependent Effect; Activity (PANC-1 [4]): Dose-Dependent Effect; Activity (PANC-1 [5]): Dose-Dependent Effect; inhibition (PANC-1 [6]): Dose-Dependent Effect; inhibition (INH) (PANC-1 [7]): >60% |
| O=C(c1ccccc1O)c1cc(O)ccc1O | 42.5 µM | Non-Toxic |  |
| CC(C)=CCC/C(C)=C/CC[C@]1(C)CCc2c(O)cc(O)c(C(=O)c3ccccc3)c2O1 | 12.3 µM | Non-Toxic |  |
| CC(C)=CCC/C(C)=C/CC[C@@]1(C)Oc2c(c(O)cc(O)c2C(=O)c2ccccc2)C[C@H]1O | 6.7 µM | Non-Toxic |  |
| CC(C)(O)[C@@H]1CC[C@@]2(C)C[C@@H]1c1c(O)cc(O)c(C(=O)c3ccccc3)c1O2 | 4.9 µM | Non-Toxic | Activity (PANC-1 [3]): Dose-Dependent Effect; Activity (PANC-1 [4]): Dose-Dependent Effect; Activity (PANC-1 [5]): Dose-Dependent Effect; Activity (PANC-1 [8]): Active; Activity (PANC-1 [9]): Active; Activity (PANC-1 [10]): Active; Activity (PANC-1 [11]): Active; inhibition (PANC-1 [6]): Dose-Dependent Effect; inhibition at 20 µM (PANC-1 [12]): 45%; inhibition at 40 µM (PANC-1 [13]): 64% |
| O=c1c2ccc(O)cc2oc2ccc(O)cc12 | 45.2 µM | Non-Toxic |  |
| COc1cccc2c(=O)c3c(O)cccc3oc12 | 61 µM | Non-Toxic |  |
